The record followed here is patent US10092551B2, “Spiro-thiazolones” (Hoffmann-La Roche Inc., priority 2014, dated 2018).

Sequence of human V1a receptor (P37288 whole entry): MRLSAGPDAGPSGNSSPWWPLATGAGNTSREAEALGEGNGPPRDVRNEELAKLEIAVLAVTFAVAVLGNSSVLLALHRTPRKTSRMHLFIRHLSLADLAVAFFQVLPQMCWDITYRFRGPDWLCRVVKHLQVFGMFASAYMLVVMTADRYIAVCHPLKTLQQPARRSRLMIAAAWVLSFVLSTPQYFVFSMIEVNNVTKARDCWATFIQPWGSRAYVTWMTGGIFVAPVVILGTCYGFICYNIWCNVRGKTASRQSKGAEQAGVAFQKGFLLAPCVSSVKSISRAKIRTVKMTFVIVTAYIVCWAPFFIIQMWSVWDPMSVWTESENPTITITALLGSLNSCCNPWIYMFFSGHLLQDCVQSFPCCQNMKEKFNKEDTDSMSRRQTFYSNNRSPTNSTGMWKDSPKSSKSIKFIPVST

For this assay, the target named is human V1a receptor (Homo sapiens (Human), UniProt P37288). Description: human V1a receptor binding studies (3H-Vasopressin, SPA beads). The note with it: membranes of HEK293 cells transiently transfected with human V1a receptor, Ki by Cheng-Prussoff. The protocol:
The human V1a receptor was cloned by RT-PCR from total human liver RNA. The coding sequence was subcloned in an expression vector after sequencing to confirm the identity of the amplified sequence. […] Cell membranes were prepared from HEK293 cells transiently transfected with the expression vector and grown in 20 liter fermenters with the following protocol.
50 g of cells are re-suspended in 30 ml freshly prepared ice cold Lysis buffer (50 mM HEPES, 1 mM EDTA, 10 mM MgCl2 adjusted to pH=7.4+complete cocktail of protease inhibitor (Roche Diagnostics)). Homogenized with Polytron for 1 min and sonicated on ice for 2×2 minutes at 80% intensity (Vibracell sonicator). The preparation is centrifuged 20 min at 500 g at 4° C., the pellet is discarded and the supernatant centrifuged 1 hour at 43,000 g at 4° C. (19,000 rpm). The pellet is re-suspended in 12.5 ml Lysis buffer+12.5 ml Sucrose 20% and homogenized using a Polytron for 1-2 min. The protein concentration is determined by the Bradford method and aliquots are stored at −80° C. until use. For binding studies 60 mg Yttrium silicate SPA beads (Amersham) are mixed with an aliquot of membrane in binding buffer (50 mM Tris, 120 mM NaCl, 5 mM KCl, 2 mM CaCl2, 10 mM MgCl2) for 15 minutes with mixing. 50 μl of bead/membrane mixture is then added to each well of a 96 well plate, followed by 50 μl of 4 nM 3H-Vasopressin (American Radiolabeled Chemicals). For total binding measurement 100 μl of binding buffer are added to the respective wells, for non-specific binding 100 μl of 8.4 mM cold vasopressin and for compound testing 100 μl of a serial dilution of each compound in 2% DMSO. The plate is incubated 1 h at room temperature, centrifuged 1 min at 1000 g and counted on a Packard Top-Count. Non-specific binding counts are subtracted from each well and data is normalized to the maximum specific binding set at 100%. To calculate an IC 50 the curve is fitted using a non-linear regression model (XLfit) and the Ki is calculated using the Cheng-Prussoff equation.
Regarding `C/C(=C1\SC(N2CCC3(CC2)OC(=O)c2ccccc23)=NC1=O)c1ccc(C)nc1` [Example 136, 1′-{(5E)-5-[1-(6-methylpyridin-3-yl)ethylidene]-4-oxo-4,5-dihydro-1,3-thiazol-2-yl}-3H-spiro[2-benzofuran-1,4′-piperidin]-3-one], the “pKi hV1a” value is reported as 7.5. Next, `O=C1N=C(N2CCC3(CC2)OCc2ccccc23)S/C1=C1/CC2C3CC4C2C4C13` (centres unmarked) [Example 55, (5E/Z)-5-[hexahydro-1,2,4-(methanetriyl)pentalen-5(1H)-ylidene]-2-(1′H,3H-spiro[2-benzofuran-1,4′-piperidin]-1′-yl)-1,3-thiazol-4(5H)-one]: 8.3; `CCCC(CCC)=C1SC(N2CCC3(CC2)OCc2ccccc23)=NC1=O` [Example 114, 5-(heptan-4-ylidene)-2-(1′H,3H-spiro[2-benzofuran-1,4′-piperidin]-1′-yl)-1,3-thiazol-4(5H)-one]: 8.9; `CC/C(=C1\SC(N2CCC3(CC2)OC(=O)c2ccccc23)=NC1=O)c1ccc(Cl)nc1` [Example 149, 1′-{(5E)-5-[1-(6-chloropyridin-3-yl)propylidene]-4-oxo-4,5-dihydro-1,3-thiazol-2-yl}-3H-spiro[2-benzofuran-1,4′-piperidin]-3-one]: 8.2. Next, `CC(C)(C)OC(=O)N1CCC(=C2SC(N3CCC4(CC3)OCc3ccccc34)=NC2=O)CC1` [Example 41, tert-butyl 4-[4-oxo-2-(1′H,3H-spiro[2-benzofuran-1,4′-piperidin]-1′-yl)-1,3-thiazol-5(4H)-ylidene]piperidine-1-carboxylate]: 7.6; `C/C(=C1/SC(N2CCC3(CC2)OCc2ccccc23)=NC1=O)c1ccnc(C)c1` [Example 77, (5E/Z)-5-[1-(2-methylpyridin-4-yl)ethylidene]-2-(1′H,3H-spiro[2-benzofuran-1,4′-piperidin]-1′-yl)-1,3-thiazol-4(5H)-one]: 7.6; `O=C1N=C(N2CCC3(CC2)OCc2ccccc23)S/C1=C(\c1ccc(Cl)cc1)C1CC1` [Example 22, (5E/Z)-5-[(4-chlorophenyl)(cyclopropyl)methylidene]-2-(1′H,3H-spiro[2-benzofuran-1,4′-piperidin]-1′-yl)-1,3-thiazol-4(5H)-one]: 7.8. The figure for `C/C(=C1/SC(N2CCC3(CC2)OC(=O)c2ccccc23)=NC1=O)c1ccc(Cl)nc1` [Example 137, 1′-{(5Z)-5-[1-(6-chloropyridin-3-yl)ethylidene]-4-oxo-4,5-dihydro-1,3-thiazol-2-yl}-3H-spiro[2-benzofuran-1,4′-piperidin]-3-one] is 8.0.

On to `CC(C)(C)[Si](C)(C)OC/C(=C1\SC(N2CCC3(CC2)OC(=O)c2ccccc23)=NC1=O)c1ccccc1` [Example 141, 1′-[(5Z)-5-(2-{[tert-butyl(dimethyl)silyl]oxy}-1-phenylethylidene)-4-oxo-4,5-dihydro-1,3-thiazol-2-yl]-3H-spiro[2-benzofuran-1,4′-piperidin]-3-one], for which the “pKi hV1a” value came to 7.6.

As to `C/C(CN)=C1\SC(N2CCC3(CC2)OCc2ccccc23)=NC1=O.Cl` [Example 66, (5E)-5-(1-aminopropan-2-ylidene)-2-(1′H,3H-spiro[2-benzofuran-1,4′-piperidin]-1′-yl)-1,3-thiazol-4(5H)-one hydrochloride (1:1)], the “pKi hV1a” value came out at 6.6. `CC(C)(C)[Si](C)(C)OC/C(=C1/SC(N2CCC3(CC2)OCc2ccccc23)=NC1=O)c1ccc(Cl)nc1` [Example 129, (5E)-5-[2-{[tert-butyl(dimethyl)silyl]oxy}-1-(6-chloropyridin-3-yl)ethylidene]-2-(1′H,3H-spiro[2-benzofuran-1,4′-piperidin]-1′-yl)-1,3-thiazol-4(5H)-one]: the “pKi hV1a” value stood at 8.2. The figure for `C/C(CNC(=O)OC(C)(C)C)=C1\SC(N2CCC3(CC2)OCc2ccccc23)=NC1=O` [Example 65, tert-butyl {(2E)-2-[4-oxo-2-(1′H,3H-spiro[2-benzofuran-1,4′-piperidin]-1′-yl)-1,3-thiazol-5(4H)-ylidene]propyl}carbamate] is 7.7. The figure for `C/C(=C1\SC(N2CCC3(CC2)OCc2ccccc23)=NC1=O)c1ccncc1` [Example 36, (5E)-5-[1-(pyridin-4-yl)ethylidene]-2-(1′H,3H-spiro[2-benzofuran-1,4′-piperidin]-1′-yl)-1,3-thiazol-4(5H)-one] is 7.5.

With `C/C(=C1/SC(N2CCC3(CC2)OCc2ncccc23)=NC1=O)c1ccc(Cl)cc1` [Example 6, (5E/Z)-5-[1-(4-chlorophenyl)ethylidene]-2-(1′H,7H-spiro[furo[3,4-b]pyridine-5,4′-piperidin]-1′-yl)-1,3-thiazol-4(5H)-one], the “pKi hV1a” value was found to be 9.3. For the molecule `[2H]C([2H])([2H])/C(=C1\SC(N2CCC3(CC2)OCc2ccccc23)=NC1=O)c1ccccc1` [Example 174, (5E)-5-[1-phenyl(^2H3)ethylidene]-2-(1′H,3H-spiro[2-benzofuran-1,4′-piperidin]-1′-yl)-1,3-thiazol-4(5H)-one], the “pKi hV1a” value stood at 8.7. With `C/C(=C1/SC(N2CCC3(CC2)OCc2ncccc23)=NC1=O)c1cccnc1` [Example 165, (5E/Z)-5-[1-(pyridin-3-yl)ethylidene]-2-(1′H,7H-spiro[furo[3,4-b]pyridine-5,4′-piperidin]-1′-yl)-1,3-thiazol-4(5H)-one], the “pKi hV1a” value is listed as 7.5. Next, `O=C1N=C(N2CCC3(CC2)OCc2ccccc23)SC1=C(C1CCCC1)C1CCCC1` [Example 118, 5-(dicyclopentylmethylidene)-2-(1′H,3H-spiro[2-benzofuran-1,4′-piperidin]-1′-yl)-1,3-thiazol-4(5H)-one]: 7.6. As to `CC/C(=C1\SC(N2CCC3(CC2)OCc2ccccc23)=NC1=O)c1ccc(Cl)cc1` [Example 25, (5E)-5-[1-(4-chlorophenyl)propylidene]-2-(1′H,3H-spiro[2-benzofuran-1,4′-piperidin]-1′-yl)-1,3-thiazol-4(5H)-one], the “pKi hV1a” value is given as 8.2. The figure for `O=C1N=C(N2CCC3(CC2)OCc2ccccc23)S/C1=C\c1ccccc1` [Example 9, (5Z)-5-benzylidene-2-(1′H,3H-spiro[2-benzofuran-1,4′-piperidin]-1′-yl)-1,3-thiazol-4(5H)-one] is 8.4; for `C/C(=C1/SC(N2CCC3(CC2)OCc2ccccc23)=NC1=O)c1ccccc1` [Example 151, (5Z)-5-(1-phenylethylidene)-2-(1′H,3H-spiro[2-benzofuran-1,4′-piperidin]-1′-yl)-1,3-thiazol-4(5H)-one] it is 9.2; for `O=C1N=C(N2CCC3(CC2)OCc2ccccc23)SC1=C1c2ccccc2Sc2ccccc21` [Example 102, 2-(1′H,3H-spiro[2-benzofuran-1,4′-piperidin]-1′-yl)-5-(9H-thioxanthen-9-ylidene)-1,3-thiazol-4(5H)-one] it is 8.6. Turning to `O=C1N=C(N2CCC3(CC2)OCc2ccccc23)S/C1=C\c1ccc(Cl)cc1` [Example 8, (5Z)-5-(4-chlorobenzylidene)-2-(1′H,3H-spiro[2-benzofuran-1,4′-piperidin]-1′-yl)-1,3-thiazol-4(5H)-one], the “pKi hV1a” value is recorded as 7.8. Next, `O=C1N=C(N2CCC3(CC2)OCc2ccccc23)S/C1=C1/CCCCc2ccc(Cl)cc21` [Example 89, (5E/Z)-5-(3-chloro-6,7,8,9-tetrahydro-5H-benzo[7]annulen-5-ylidene)-2-(1′H,3H-spiro[2-benzofuran-1,4′-piperidin]-1′-yl)-1,3-thiazol-4(5H)-one]: 9.0. The figure for `O=C1N=C(N2CCC3(CC2)OCc2ccccc23)SC1=C(c1cccnc1)c1cccnc1` [Example 119, 5-[di(pyridin-3-yl)methylidene]-2-(1′H,3H-spiro[2-benzofuran-1,4′-piperidin]-1′-yl)-1,3-thiazol-4(5H)-one] is 7.6; for `C/C(=C1/SC(N2CCC3(CC2)OCc2ccccc23)=NC1=O)c1cnc[nH]1` [Example 117, (5E/Z)-5-[1-(1H-imidazol-5-yl)ethylidene]-2-(1′H,3H-spiro[2-benzofuran-1,4′-piperidin]-1′-yl)-1,3-thiazol-4(5H)-one] it is 7.3. The figure for `C/C(=C1\SC(N2CCC3(CC2)OCc2ccccc23)=NC1=O)c1ncccc1C` [Example 155, (5E)-5-[1-(3-methylpyridin-2-yl)ethylidene]-2-(1′H,3H-spiro[2-benzofuran-1,4′-piperidin]-1′-yl)-1,3-thiazol-4(5H)-one] is 8.7.
